Source: patent US20140128357A1, “METHODS OF PRODUCING AND USING BRASSINOSTEROIDS TO PROMOTE GROWTH, REPAIR AND MAINTENANCE OF SKELETAL MUSCLE AND SKIN” (Rutgers University, priority 2010, published 2014)
Marks after values point to notes of the source that are not given here.

Experiments:
[1] = system: TNF-α, TGF-β and ICAM-1 mRNA in wounds; experiment: Cytokine and chemokine mRNA in wound tissue, qPCR; format: in vivo; conditions: day 10 post-wounding, 10 μg/mouse topically
Protocol: Cutaneous would healing is characterized by an initial inflammatory response. To evaluate the effect of brassinosteroids on inflammation in wound healing, mRNA levels of proinflammatory cytokines TNF-α and TGF-β and an adhesion chemokine ICAM-1 were measured in the wound tissue of control and treated mice on day 10 post-wounding and treatment with HB, positive control (CGS-21680), or negative control (vehicle).
Total RNA was extracted from fibroblasts using Trizol (Invitrogen, Carlsbad, Calif.). RNA was quantified spectrophotometrically by absorbance measurements at 260 and 280 nm using the NanoDrop reader (NanoDrop Technologies, Wilmington, Del.). Quality of RNA was assessed by gel electrophoresis. RNA was then treated with DnaseI (Invitrogen, Carlsbad, Calif.) to remove traces of DNA contamination and the cDNAs were synthesized with 2.5 μg of RNA using Stratascript reverse transcriptase (Stratagene, Santa Clara, Calif.) according to the manufacturers' protocols. Quantitative PCR was performed in duplicate essentially as described previously (Komarnytsky et al., Int. J. Obes. 35: 236-43, 2011) using the following gene-specific primers (IDT, Coralville, Iowa) selected using the Primer Express 2.0 software (Applied Biosystems, Foster City, Calif.): β-actin, forward primer 5′-GGGAAATCGTGCGTGACATT-3′ (SEQ ID NO: 5), and reverse primer 5′-GCG GCA GTG GCC ATC TC-3′ (SEQ ID NO: 6). Target gene expression of the housekeeping gene β-actin was assigned a value of 1. Samples were subjected to a melting curve analysis to confirm the amplification specificity. The relative change in the […] with respect to the endogenous control gene was determined using 2ΔΔCT method (Winer et al., Anal. Biochem. 270: 41-9, 1999).

[2] = system: cutaneous wound in C57BL/6J mice; experiment: Mouse cutaneous injury model of wound healing; format: in vivo; conditions: 10 μg/mouse/day topically for 10 days
Protocol: Under volatile anesthesia (5% isoflurane to effect), the shoulder and back region of each animal was shaved. A sharp punch (ID 6 mm) over their lumbar spine was applied to remove the skin, including panniculus carnosus and adherent tissues. Test substances were administered topically (TOP), immediately following cutaneous injury, once daily for 10 consecutive days. […] Wounds were traced onto clear plastic sheets and were measured by use of an ImageJ program (rsbweb.nih.gov/ij/), online from the National Institutes of Health (NIH). ImageJ is a public domain, Java-based image processing program developed at the NIH. Time to wound closure was estimated by comparing the area of the wound undergoing treatment to the areas of the wound undergoing control treatments. The percent closure of the wound (%) was calculated, and wound half-closure time (the time at which 50% of the cutaneous wound is closed, CT50) was analyzed by linear regression using Graph-Prism (Graph Software USA). At the end of experiment (10 days after the induction of the wound), animals were euthanized by CO2 gas inhalation. Blood was collected by heart puncture. Wound tissue and muscle were collected for immunohistochemical analyses and wound healing factor assays. HB increased the percent of wound closure in vivo in a mouse model of wound closure (FIG. 13). […] Twenty seven six-week-old male C57BL/6J mice, obtained from the Jackson Laboratory (Bar Harbor, Me.), were housed in individual chambers in a room maintained at a constant temperature with 12 h light-dark cycle. Mice had free access to food and water. Mice were allowed to adapt to new conditions for seven days and handling the mice was performed daily during this time to reduce the stress of physical manipulation. Mice were randomized into groups (n=9) according to body weight one day prior to dosing. Under volatile anesthesia (5% isoflurane to effect), the shoulder and back region of each animal was shaved. A sharp punch (ID 6 mm) over lumbar spine was applied to remove the skin including panniculus carnosus and adherent tissues. […] Pharmacol. 77: 1117-1124, 2009) as a positive control) was administered topically, immediately following cutaneous injury, and then daily for 10 days. To investigate the kinetics of wound healing, wound size was photographed and measured every two days with ImageJ software (rsbweb.nih.gov/ij/). […] The percent closure of the wound (%) was calculated, and time at which 50% of the cutaneous wound was closed (CT50) was analyzed by linear regression. […] Wound sizes were photographed and measured every 2 days for 10 days. Wound closure (%) relative to day 1 was determined every 2 days, and CT50 was calculated by linear regression. […]

[3] = system: elastin mRNA in human neonatal dermal fibroblasts (HNDF); experiment: Elastin gene expression in human dermal fibroblasts, qPCR; format: cell-based; conditions: 16 h
Protocol: Human neonatal dermal fibroblasts (HNDF) were maintained in DMEM+10% FBS and were kept in a humidified 37° C. incubator with 5% CO2. Cells were plated at a density of 1×10^4 cells per well in a 24-well plate and incubated for 24 h, or until 100% confluency was reached. Subsequently, the media was removed and cells were washed with 500 μL PBS twice to remove detached cells or cell debris. HNDF were then treated for 16 h as follows: DMEM only, retinoic Acid 5 μM, retinoic acid 10 μM, Homocastasterone 5 μM and Homocastasterone 10 μM.
RNA was extracted from HNDF using Trizol reagent (Invitrogen) following manufacturer instructions. RNA was quantified spectrophotometrically by absorbance measurements at 260 nm and 280 nm using the NanoDrop system (NanoDrop Technologies, Wilmington, Del.). Quality of RNA was assessed by separation in gel-electrophoresis. To remove any traces of DNA contamination, RNA was then treated with Dnase I (Invitrogen) following the manufacturer guidelines. Complementary DNAs (cDNAs) were synthesized using 3.0 μg of RNA for each sample using Applied Biosystems High Capacity cDNA Reverse Transcription Kit following the manufacturer's protocol.
Quantitative RT-PCR (qPCR) amplifications were carried out in triplicate on an ABI 7300 Real-Time Detection System in a total volume of 25 μl containing 12.5 μl Brilliant SYBR® Green PCR master mix (Applied Biosystems), 5 μl of the 1:25 diluted cDNA, 0.5 μl of 6 μM gene-specific primers (IDT, Coralville, Iowa) and […] PCR-grade water. Primers were synthesized by Integrated DNA Technologies, Inc. (Coralville, Iowa, USA) as follows: β-actin, forward primer 5′-ACGTTGCTATCCAGGCTGTGCTAT-3′ (SEQ ID NO: 1), reverse primer 5′-CTCGGTGAGGATCTTCATGAGGTAGT-3′ (SEQ ID NO: 2); elastin, forward primer 5′-AAGCAGCAGCAAAGTTCGGT-3′ (SEQ ID NO: 3), and reverse primer 5′-ACTAAGCCTGCAGCAGCTCCATA-3′ (SEQ ID NO: 4). qPCR amplifications were performed on the 7300 Real Time PCR System (A&B Applied Biosystems) using 1 cycle at 50° C. for 2 min, 1 cycle at 95° C. for 10 min, followed by 40 cycles of 15 s at 95° C. and 1 min at 60° C. The dissociation curve was completed with one cycle of 15 s at 95° C., 1 min at 60° C., and 15 s of 95° C. No RT (NRT) and no template control (NTC) were included in each experiment as quality control steps. Target mRNA expression was analyzed using the ΔΔCt method and normalized with respect to the expression of the β-actin housekeeping gene. Cells treated with DMEM only (negative control) served as the calibrator sample in this study, and a value of 1.0 was assigned to the target gene expression of the calibrator sample. All samples were run in triplicate. A p value of 0.001 was considered to be significant.

[4] = system: L6 rat myotubes; experiment: Protein synthesis, [3H]-phenylalanine incorporation in myotubes; format: cell-based; conditions: IGF-1 6.5 nM positive control, 4 h
Protocol: In some aspects, cell culture experiments were carried out. Rat L6 skeletal muscle cell line CRL-1458 was obtained from ATCC (Manassas, Va.). Myoblasts were routinely maintained in Dulbecco's modified Eagle's medium (DMEM) containing 10% FBS and 0.1% penicillin-streptomycin at 37° C. and 5% CO2. Cells were subcultured into 24-well plates for protein synthesis, degradation, and cell viability studies and into 6-well plates for Western blot analyses (Greiner Bio One, Monroe, N.C.). Once cells reached 90% confluence, differentiation was induced by lowering the serum concentration to 2%, and medium was changed every 2 days. After 7-9 days of culture the myoblasts had fused into multinucleated myotubes (Mandel et al., Nature 251:618-620, 1974). NIH 3T3 murine embryonic fibroblast cell line (ATCC #CCL-92) was maintained in DMEM and 10% FBS at 37° C. in 5% CO2, and passaged every 3-4 days.
In various aspects, protein synthesis is measured to determine the effect of brassinosteroid on a particular protein. All known methods for measuring protein synthesis are included in the methods of the disclosure. In brassinosteroid dose response studies, fully differentiated myotubes were washed with serum-free DMEM and treated in triplicate with vehicle (0.1% ethanol), increasing concentrations of HB, or 6.5 nM of insulin-like growth factor-1 (IGF-1) as a positive control. Compounds were added to serum-free medium containing 0.5 μCi/mL [^3H]-phenylalanine and incubated for 4 h. For the HB time course study, fully differentiated myotubes were treated with 3 μM HB for 1-24 h using the same culture conditions. The incubation was stopped by placing cells on ice, discarding the medium, and washing the cells extensively with ice-cold PBS to remove the non-incorporated radiolabel. Proteins were precipitated with 5% trichloroacetic acid and dissolved in 0.5N NaOH (Montgomery et al., Methods Cell. Sci. 24:123-129, 2002). Specific radioactivity of protein-bound phenylalanine was quantified using liquid scintillation counter LS 6500 (Beckman Coulter, Fullerton, Calif.) and normalized to mg of total protein determined by BCA protein assay (Pierce Biotechnology, Rockford, Ill.).
The bioactivity of HB and its analogs was evaluated by measuring increases in protein synthesis in the L6 rat skeletal muscle cells in vitro. Cells were incubated for 4 h with [^3H]-phenylalanine and treated in triplicate with vehicle (0.1% ethanol) or test compound (10 μM), and protein synthesis was measured as incorporation of [^3H]-phenylalanine into protein normalized by total protein (Table 3). Under these conditions, both HB and (22S,23S)-homocastasterone increased protein synthesis by 37.2±5.9% (p<0.001) and 41.0±2.7% (p<0.001), respectively. This protein synthesis increase compared favorably to the biological activity of IGF-1 at 6.5 nM (42.5±4.5%, p<0.001) that served as a positive control in this assay. Removal of the 2α-hydroxyl group and fluorination at C-3 in the A ring (compound IDs 3-4 in Table 3) led to about a 50% decrease in bioactivity (24.6±5.3%, p<0.01 and 22.5±2.7%, p<0.01, respectively) compared to the positive control. However, there was still an increase in protein synthesis. […] Modifications in the side chain (compound IDs 7-9 in Table 3) abolished the activity.

[5] = system: AKT (Ser473) phosphorylation in L6 myotubes; experiment: AKT (Ser473) phosphorylation, Western blot; format: cell-based, rat
Protocol: In some aspects, Western blot analyses were carried out. Fully differentiated L6 myotubes were cultured as described above, and whole cell extracts were prepared in ice-cold RIPA buffer supplemented with 10 mM sodium fluoride, 2 mM sodium orthovanadate, 1 mM PMSF, and protease inhibitor cocktail (Sigma) and centrifuged at 12,000 g for 20 min at 4° C. Equal amounts of protein (50 μg) from the supernatants were separated on 10% SDS polyacrylamide gels and blotted onto the nitrocellulose membrane. Western blot detection was carried out with monoclonal phospho-AKT (Ser473) antibodies according to the manufacturer's instructions (Cell Signaling Technology, Danvers, Mass.). After being washed, the blots were incubated with an anti-rabbit peroxidase-labeled secondary antibody and visualized using ECL Western Blotting Detection Reagent (GE Healthcare, Piscataway, N.J.). After being stripped, the same blots were probed with total AKT antibodies to serve as loading controls.

In the case of `CCNC(=O)[C@H]1O[C@@H](n2cnc3c(N)nc(NCCc4ccc(CCC(=O)O)cc4)nc32)[C@H](O)[C@@H]1O` [CGS-21680, reference compound], the “ICAM-1 mRNA in wound tissue” value [1] is reported as “no effect”, the “TGF-β mRNA in wound tissue” value [1] is reported as “no effect” and the “TNF-α mRNA in wound tissue” value [1] is reported as “remarkable suppression”. The “CT50, time at which 50% of the cutaneous wound is closed” value [2] was 6.2 ± 0.4 days.

`CC1=C(/C=C/C(C)=C/C=C/C(C)=C/C(=O)O)C(C)(C)CCC1` [Retinoic Acid, reference compound] was tested, and the “Increase in elastin mRNA levels (-fold over control)” value ([3]; 5 μM) was 2.9** fold and the “Increase in elastin mRNA levels (-fold over control)” value ([3]; 10 μM) was 2.7** fold.

“IGF-1: Insulin-like growth factor 1, positive control for protein synthesis” was tested, and the “Protein synthesis (% increase over control)” value [4] was 42.5±4.5% and the “time to AKT phosphorylation” value [5] was ≤ 10 min.
